Results from patent publication US20250270230A1, “NOVEL SYNTHETIC STEPS FOR THE MANUFACTURING METHOD OF THE PDE4B-INHIBITOR 1-({(5R)-2-[4-(5-CHLOROPYRIMIDINE-2-YL)PIPERIDINE-1-YL]-5-OXIDO-6,7-DIHYDROTHIENO[3,2-D]PYRIMIDINE-4-YL}AMINO)CYCLOBUTYL]METHANOL” (Boehringer Ingelheim International GmbH, priority 2023, published 2025).
Where two headings read alike, the source gives them in different places. Blank lines part the entries; values can stand above or below the compound they belong to.

Legend:
[1] = Competitive slurries containing Form A, Form B and Form C (thermodynamic stability); format: physicochemical
Procedure: Few other crystalline forms were observed during the initial and extended solid form screening by using various techniques. […] Its thermodynamic stability has been confirmed by competitive slurries containing Form A, Form B and Form C. Form B was the predominant form in all solvents and temperature conditions, except for the solvent water (with a water activity of 1) at temperatures between 5 and 25° C. which yielded Form C.

[2] = Long-term stability of water-free material regarding hydrolysis side-reactions; format: physicochemical; conditions: water-free form (recrystallization variant A, 1,4-dioxane)
Text: For example with the additional recrystallization step according to variant A (recrystallization from 1,4-dioxane) Intermediate XVIII is obtained as a water-free form (examples 1 and 2). The water-free material is long-term stable (>12 months) regarding hydrolysis side-reactions, which can occur at two positions of Intermediate XVII by forming IMP-A and IMP-B (see Scheme 5).
In comparison to the process as described in U.S. Pat. No. 8,609,670B, the additional recrystallization step after the enantioselective oxidation step according to variant A yielding Intermediate XVIII also improves the quality of the sulfoxide XVII critically. Hereby, Intermediate XVIII is obtained as a water-free form. The water-free material is long-term stable (>12 months) regarding hydrolysis side-reactions, which can occur at two positions of Intermediate XVII by forming the impurities IMP-A and IMP-B (see Scheme 14).

PDE4B subunit = PDE4B subunit (Homo sapiens, UniProt Q07343); conditions: cited from earlier work
[3] = test system: patients with idiopathic pulmonary fibrosis (IPF); conditions: Phase II, cited from earlier work
[4] = Stress test-experiments of the hydrolysis reactions of Intermediate XVII; format: physicochemical
Procedure: It is shown, that hydrolysis toward IMP-A occurs at 60° C. and 90° C. (examples 1 and 2). The hydrolysis reaction itself is promoted by titanium residues, as example 2 with 671 mg/kg titanium leads to higher impurity levels of IMP-A compared to example 1, which has a lower titanium content (<251 mg/kg).
It is shown, that hydrolysis toward IMP-A occurs at 60° C. and 90° C. (examples 1 and 2). The hydrolysis reaction itself is promoted by titanium residues, as example 2 with 671 mg/kg titanium content leads to higher impurity levels of IMP-A compared to example 1, which has a lower titanium content (<251 mg/kg).

[5] = Storage stability of intermediates at room temperature; format: physicochemical
Text: The alternative synthesis method to manufacture Intermediate VIII has several advantages over the method of manufacturing Intermediate VIII (or Intermediate G as it is called in U.S. Pat. No. […]): • The new Suzuki-reaction process offers much better control of impurities by avoiding the formation of N-methylation at the piperidine ring. The methylation of the piperidine-ring occurs in the original process according to U.S. Pat. No. 8,609,670 during the use of methanol and 4M hydrochloric acid in 1,4-dioxane and takes place via the in situ formed cancerogenic compound methyl chloride. […] 0.05 m % (0.02 mol %) Pd(amphos)2Cl2 is sufficient for the Suzuki cross-coupling reaction to complete the conversion in less than 3 hours. In literature, significant higher amounts of Pd-catalyst have been described so far [a) K.-T.-Wong et al, Org. […] Second, the reproducibility of yield and quality is very high and consistent as observed on production scale over several batches. […]

[6] = Form conversion from crystalline Form A to Form B followed by Raman spectroscopy; format: physicochemical; conditions: 40° C., n-propanol/water, seeding with Form B
Procedure: Form A was charged to the reactor as the starting material. 7.0 VP of n-propanol and […] were used along with Raman probe to confirm the rate of conversion by holding the conversion at different temperature. The rate of form conversion from crystalline Form A to crystalline Form B of the PDE4B-inhibitor of formula XX was studied at 20, 40 and 70° C. with 10% seeding with crystalline Form B seeding crystals.
At 20 or 70° C., the conversion rate was similar, but definitely slower than at 40° C.
The temperature of 40° C. allows a full conversion of crystalline Form A into crystalline Form B in less than 4 hours, preferably even in 2 hours (see also FIGS. 1a and 1b). […] However, the crystallization procedure to yield the Compound of formula XX as crystalline Form B (on production scale) as described in Chapter 3.10 reduces the crystallization time down to not more than 9 hours from the timepoint of seeding, which means a significant improvement in the cycling time.

[7] = batch Example 1, Ti content <251 mg/kg
[8] = batch Example 2, Ti content 671 mg/kg

Chain of PDE4B subunit (Q07343 whole entry): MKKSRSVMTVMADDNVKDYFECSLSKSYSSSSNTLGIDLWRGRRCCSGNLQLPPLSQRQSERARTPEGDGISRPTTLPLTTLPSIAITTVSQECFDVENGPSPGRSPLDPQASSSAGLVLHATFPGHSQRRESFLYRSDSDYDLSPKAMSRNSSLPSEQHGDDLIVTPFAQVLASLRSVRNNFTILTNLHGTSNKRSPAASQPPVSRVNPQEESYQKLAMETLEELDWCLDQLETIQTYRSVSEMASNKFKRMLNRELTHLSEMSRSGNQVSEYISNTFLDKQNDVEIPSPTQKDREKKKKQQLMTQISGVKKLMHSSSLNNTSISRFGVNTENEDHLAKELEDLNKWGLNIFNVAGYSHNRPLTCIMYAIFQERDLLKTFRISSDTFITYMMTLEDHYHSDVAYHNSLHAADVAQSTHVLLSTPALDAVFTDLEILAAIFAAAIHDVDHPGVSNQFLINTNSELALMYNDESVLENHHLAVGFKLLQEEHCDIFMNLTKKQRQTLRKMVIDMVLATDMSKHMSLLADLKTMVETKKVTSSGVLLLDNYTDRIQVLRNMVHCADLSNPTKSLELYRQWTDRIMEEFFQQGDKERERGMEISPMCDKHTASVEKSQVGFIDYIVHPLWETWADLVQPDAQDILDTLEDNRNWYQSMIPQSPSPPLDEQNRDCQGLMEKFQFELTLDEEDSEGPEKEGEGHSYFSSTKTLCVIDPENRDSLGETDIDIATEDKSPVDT

thermodynamic stability of crystalline form [1]: thermodynamically most stable form
Compound: [O-][S@+]1CCc2nc(N3CCC(c4ncc(Cl)cn4)CC3)nc(NC3(CO)CCC3)c21 [Form B]

time for full conversion of crystalline Form A into crystalline Form B [6]: less than 4 hours
Compound: [O-][S@+]1CCc2nc(N3CCC(c4ncc(Cl)cn4)CC3)nc(NC3(CO)CCC3)c21 [Form A]

Continued, compound first:

Compound: [O-][S@+]1CCc2nc(Cl)nc(NC3(CO)CCC3)c21 [Intermediate XVIII]
long-term stability regarding hydrolysis side-reactions [2]: > 12 months

Compound: [O-][S@+]1CCc2nc(N3CCC(c4ncc(Cl)cn4)CC3)nc(NC3(CO)CCC3)c21 [Compound XX, 1-({(5R)-2-[4-(5-CHLOROPYRIMIDINE-2-YL)PIPERIDINE-1-YL]-5-OXIDO-6,7-DIHYDROTHIENO[3,2-D]PYRIMIDINE-4-YL}AMINO)CYCLOBUTYL]METHANOL]
PDE4 subunit preference (PDE4B subunit): preferentially inhibits the PDE4B subunit
lung function decline ([3]; IPF patients already taking approved antifibrotics (Nintedanib or Pirfenidon) as background): reduction in lung function decline could be observed
lung function decline ([3]; IPF patients not on approved antifibrotics as background treatment): reduction in lung function decline could be observed
rate of lung function decline ([3]; IPF patients, within 12 weeks of treatment): reduction in the rate of lung function decline

Compound: [O-][S@+]1CCc2nc(Cl)nc(NC3(CO)CCC3)c21 [Intermediate XVII, 1-[[(5R)-2-chloro-6,7-dihydro-5-oxidothieno[3,2-d]pyrimidin-4-yl]amino]-cyclobutanemethanol]
IMP-A content in XVII after 1 week at 60° C. [4, 7]: 0.13%
IMP-A content in XVII after 1 week at 90° C. [4, 7]: 0.16%
IMP-A content in XVII at t = 0 [4, 7]: 0.10%
IMP-B content in XVII after 1 week at 60° C. [4, 7]: 0.05%
IMP-B content in XVII after 1 week at 90° C. [4, 7]: 0.34%
IMP-B content in XVII at t = 0 [4, 7]: <0.05%
IMP-A content in XVII after 1 week at 60° C. [4, 8]: 0.19%
IMP-A content in XVII after 1 week at 90° C. [4, 8]: 0.32%
IMP-A content in XVII at t = 0 [4, 8]: <0.05%
IMP-B content in XVII after 1 week at 60° C. [4, 8]: <0.05%
IMP-B content in XVII after 1 week at 90° C. [4, 8]: 0.54%
IMP-B content in XVII at t = 0 [4, 8]: <0.05%

Compound: CC(C)(C)OC(=O)N1CC=C(c2ncc(Cl)cn2)CC1 [Intermediate VI]
storage stability [5]: stable for storage at room temperature
